The text below walks through data of PMC8509773, “3-Pyridinylidene Derivatives of Chemically Modified Lupane and Ursane Triterpenes as Promising Anticancer Agents by Targeting Apoptosis” (International Journal of Molecular Sciences, 2021).

Holding throughout (assay): NCI-60 SRB screening (one-dose and five-dose)
What all share (assay type): cell-based, human

One test relates to HS 578T. Conditions: 48 h; for Growth Percent: 10 μM. The method, boiled down: (§1)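 After a 48-h incubation with compound, cellular protein was stained with SRB and growth estimated by spectrophotometry relative to untreated controls.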
The next test has as its system KM-12. Conditions: 48 h; for Growth Percent: KM-12, 10 μM. An outline of the steps:
(§2)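 Growth inhibition is scored with sulforhodamine B after 48 h of continuous compound exposure. An MG_MID averages each parameter over the whole cell panel, insensitive lines being counted at the top tested concentration.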

The test system of a further test is SK-MEL-2. Particulars: 48 h; for Growth Percent: SK-MEL-2, 10 μM. An outline of the steps: as §1
A further test concerns UO-31. Particulars: 48 h; for Growth Percent: UO-31, 10 μM. The method, boiled down:
as §2

For another test, the system named is OVCAR-5. Conditions: 48 h; for Growth Percent: OVCAR-5, 10 μM. The method, boiled down: as §2
The next test relates to LOX IMVI. Conditions: 48 h; for Growth Percent: 10 μM. An outline of the steps:
(§3)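 SRB colorimetric growth assay; cultures exposed to compound for 48 h at a single concentration, values normalised to untreated cells.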

The next test relates to M14. Conditions: 48 h; for Growth Percent: M14, 10 μM. The method, boiled down: as §3
The subject of the next test is NCI-H226. Particulars: 48 h; for Growth Percent: NCI-H226, 10 μM. The method, boiled down: as §2
For another test, the system named is CCRF-CEM. Conditions: 48 h; for Growth Percent: 10 μM. An outline of the steps:
as §1

In the next test the test system is NCI/ADR-RES. Conditions: 48 h; for Growth Percent: 10 μM. The method, boiled down: as §2
A further test concerns CAKI-1. Particulars: 48 h; for Growth Percent: CAKI-1, 10 μM. An outline of the steps: as §1
The test system of the next test is MDA-MB-231/ATCC. Conditions: 48 h; for Growth Percent: 10 μM. An outline of the steps:
as §2

The test system of the next test is NCI-H322M. Conditions: 10 μM, 48 h. An outline of the steps:
as §3

The next test relates to NCI-H460. Conditions: 48 h; for Growth Percent: NCI-H460, 10 μM. An outline of the steps:
as §2

The next test has as its system TK-10. Particulars: TK-10, 10 μM, 48 h. The method, boiled down: as §3
The subject of another test is NCI-H23. Conditions: 48 h; for Growth Percent: NCI-H23, 10 μM. An outline of the steps: as §1
Another test concerns OVCAR-3. Conditions: 48 h; for Growth Percent: OVCAR-3, 10 μM. The method, boiled down:
as §2

For a further test, the system named is SNB-75. Conditions: 48 h; for Growth Percent: SNB-75, 10 μM. The method, boiled down: as §1
The next test deals with NCI-H522. Conditions: 48 h; for Growth Percent: NCI-H522, 10 μM. The method, boiled down: as §3
A further test has as its system BT-549. Particulars: 48 h; for Growth Percent: BT-549, 10 μM. The method, boiled down: as §3
[1] abbreviates: Homo sapiens, five dose 0.01–100 μM.

For the compound `CC(=O)[C@H]1C[C@]23CC[C@]4(C)[C@H](CC[C@@H]5[C@@]6(C)CCC(=O)C(C)(C)[C@@H]6CC[C@]54C)[C@H]2[C@H](C)[C@@]1(C)OC3` [Compound 2, 3-oxo-21β-acetyl-20β,28-epoxy-18α,19βH-ursane], the “Growth Percent” value with HS 578T came out at 103.91%; in the test with KM-12, 102.54%; in the test with SK-MEL-2 it was 105.22%; in the test on UO-31, 66.99%; in the test with OVCAR-5 it was 96.55%; in the test on LOX IMVI it was 94.48%. Further, the “Growth Percent” value in the test on M14 was determined as 107.08%; in the test on NCI-H226 it was 95.16%; in the test on CCRF-CEM it was 104.98%; in the test on NCI/ADR-RES it was 102.89%; in the test on CAKI-1, 66.38%; in the test with MDA-MB-231/ATCC, 85.22%. In addition, the “Growth Percent” value in the test with NCI-H322M turned out to be 106.71%; with NCI-H460 it was 94.87%; in the test with TK-10, 76.40%; in the test on NCI-H23 it was 90.60%; with OVCAR-3, 119.38%; with SNB-75, 72.80%.
`C[C@H]1[C@@H]2[C@H]3CC[C@@H]4[C@@]5(C)CC[C@H](O)C(C)(C)[C@@H]5CC[C@@]4(C)[C@]3(C)CC[C@]23CO[C@@]1(C)C(C(=O)/C=C/c1cccnc1)C3` (some centres unmarked) [Compound 4]: the “Growth Percent” value was found to be 81.98% in the test with HS 578T; 54.39% with KM-12; 87.32% with SK-MEL-2; 58.69% in the test on UO-31; 120.62% with OVCAR-5; 51.47% in the test on LOX IMVI. Also, the “Growth Percent” value is 60.79% in the test with M14; 76.56% with NCI-H226; 30.84% with CCRF-CEM; 78.87% in the test on NCI/ADR-RES; 55.59% with CAKI-1; 37.96% in the test with NCI-H522. Moreover, the “Growth Percent” value turned out to be 82.10% in the test with MDA-MB-231/ATCC; 88.41% in the test on NCI-H322M; 40.71% in the test with NCI-H460; 31.89% in the test with TK-10; 59.51% in the test on NCI-H23; 46.73% in the test on OVCAR-3. Also, the figures for the “Growth Percent” value in the test with SNB-75 and in the test on BT-549 were 72.76% and 57.24%, respectively.
`C[C@H]1[C@@H]2[C@H]3CC[C@@H]4[C@@]5(C)CC[C@H](O)C(C)(C)[C@@H]5CC[C@@]4(C)[C@]3(C)CC[C@]23CO[C@@]1(C)[C@@H](C(=O)/C=C/c1ccco1)C3` [Compound 5, 3β-Hydroxy-21-[3-(2E-furyl)-prop-2-en-1-one]-20β,28-epoxy-18α,19βH-ursane]: the “Growth Percent” value in the test with HS 578T is 95.83%; in the test with KM-12 it was 99.96%; in the test on SK-MEL-2 it was 9.51%; with UO-31, 77.02%; in the test with OVCAR-5 it was 102.21%; with LOX IMVI it was 89.02%. The “Growth Percent” value with M14 is on record as 34.35%; in the test on NCI-H226, 99.66%; with CCRF-CEM, 100.63%; in the test on NCI/ADR-RES it was 95.25%; with CAKI-1, 55.81%; with NCI-H522, 87.83%. For the same compound, the “Growth Percent” value was 82.90% with MDA-MB-231/ATCC; 88.29% with NCI-H322M; 109.09% in the test on NCI-H460; 97.40% with TK-10; 98.55% in the test on NCI-H23; 102.55% in the test with OVCAR-3. Further, the figures for the “Growth Percent” value in the test on SNB-75 and with BT-549 were 78.39% and 104.50%, respectively.
As to `COC(=O)[C@]12CC[C@@H](C(C)=O)[C@@H]1[C@H]1CC[C@@H]3[C@@]4(C)C/C(=C\c5cccnc5)C(=O)C(C)(C)[C@@H]4CC[C@@]3(C)[C@]1(C)CC2` [Compound 8, Methyl 3,20-dioxo-2-(3-pyridinylidene)-29-nor-lup-28-oate], the “Growth Percent” value is listed as 74.77% in the test on HS 578T; 60.52% in the test with KM-12; 68.06% in the test with SK-MEL-2; 56.64% in the test on UO-31; 114.28% with OVCAR-5; 56.69% in the test with M14. Moreover, the “Growth Percent” value came to 48.05% in the test with NCI-H226; 7.57% in the test on CCRF-CEM; 52.54% with NCI/ADR-RES; 51.03% in the test on CAKI-1; 47.50% with NCI-H522; 76.56% in the test with MDA-MB-231/ATCC. Besides, the “Growth Percent” value with NCI-H322M worked out at 93.90%; in the test on NCI-H460 it was 70.90%; in the test with TK-10 it was 132.71%; in the test on NCI-H23, 53.20%; in the test with OVCAR-3 it was 49.04%; with SNB-75 it was 110.35%. Besides, in the test with BT-549, the “Growth Percent” value was 46.03%.
As a reminder, the GI50 is the concentration at which growth is held to half of that of the control. Read a high GI50 as lower sensitivity of the cells. As to `COc1cccc2c1C(=O)c1c(O)c3c(c(O)c1C2=O)C[C@@](O)(C(=O)CO)C[C@@H]3O[C@H]1C[C@H](N)[C@H](O)[C@H](C)O1` [Doxorubicin, reference compound], the GI50 with HS 578T (setting [1]) is 330 nM; in the test with KM-12 (Homo sapiens, KM12, KM-12, five dose 0.01–100 μM), 270 nM; in the test with SK-MEL-2 (Homo sapiens, SK-MEL-2, five dose 0.01–100 μM), 170 nM; in the test on UO-31 (Homo sapiens, UO-31, five dose 0.01–100 μM) it was 490 nM; in the test on OVCAR-5 (Homo sapiens, OVCAR-5, five dose 0.01–100 μM) it was 410 nM; in the test with LOX IMVI (setting [1]) it was 70 nM. In addition, the GI50 in the test with M14 (Homo sapiens, M14, five dose 0.01–100 μM) was determined as 180 nM; in the test on NCI-H226 (Homo sapiens, NCI-H226, five dose 0.01–100 μM) it was 50 nM; in the test on CCRF-CEM (setting [1]) it was 80 nM; with NCI/ADR-RES (setting [1]), 7160 nM; with CAKI-1 (Homo sapiens, CAKI-1, five dose 0.01–100 μM) it was 950 nM; in the test with NCI-H522 (Homo sapiens, NCI-H522, five dose 0.01–100 μM) it was 30 nM. Besides, the GI50 in the test on MDA-MB-231/ATCC (setting [1]) worked out at 510 nM; in the test on NCI-H460 (Homo sapiens, NCI-H460, five dose 0.01–100 μM), 20 nM; in the test on NCI-H23 (Homo sapiens, NCI-H23, five dose 0.01–100 μM), 150 nM; with OVCAR-3 (Homo sapiens, OVCAR-3, five dose 0.01–100 μM), 390 nM; in the test on SNB-75 (Homo sapiens, SNB-75, five dose 0.01–100 μM) it was 70 nM; in the test with BT-549 (Homo sapiens, BT-549, five dose 0.01–100 μM), 230 nM.
